Measurements: patent US9944666B2, “Compounds that are S1P modulating agents and/or ATX modulating agents” (BIOGEN MA INC., priority 2012, dated 2018)

Target: T1, Human ATX protein (Homo sapiens, UniProt Q13822)
T1 construct: made in house
Assay: ATX biochemical FRET assay with FS-3 substrate
Conditions: FS-3 2 μM, ATX 1.0 μg/mL, room temperature 2 hours, fluorescence 485/538 nm
Method in brief: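 Purified human ATX (1.0 μg/mL final) preincubated with compound 30 min at room temperature in Tris pH 7.4 buffer with NaCl, KCl, CaCl2, MgCl2 and 1 mg/mL fatty acid-free BSA. FS-3 added to 2 μM final; 2 h at room temperature in the dark, fluorescence at ex 485/em 538 nm.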

Row | SMILES | IC50 [nM]
1 | CC[C@H]1CC[C@@H](Oc2ccc3cc(CN4C5CCC4CC(C(=O)O)C5)ccc3c2Cl)CC1 (relative stereo) [Example 185, 8-((5-Chloro-6-((cis-4-ethylcyclohexyl)oxy)naphthalen-2-yl)methyl)-8-azabicyclo[3.2.1]octane-3-carboxylic acid] | ≤ 100
2 | CC[C@H](c1ccc2c(C(F)(F)F)c(O[C@H]3CC[C@@H](CC)CC3)ccc2c1)N1C2CCC1CC(C(=O)O)C2 (single isomer, unassigned) [Example 293] | ≤ 500
3 | CC(c1ccc2c(C(F)(F)F)c(O[C@H]3CC[C@@H](C)CC3)ccc2c1)N1C2CCCC1CC(C(=O)O)C2 (single isomer, unassigned; enantiomer 1) [Example 94, 9-(1-(6-((cis-4-Methylcyclohexyl)oxy)-5-(trifluoromethyl)naphthalen-2-yl)ethyl)-9-azabicyclo[3.3.1]nonane-3-carboxylic acid, enantiomer 1] | ≤ 100
4 | CC[C@H](c1ccc2c(C(F)(F)F)c(O[C@H]3CC[C@@H](C(F)(F)F)CC3)ccc2c1)N1C2CCC1CC(C(=O)O)C2 (single isomer, unassigned) [Example 287] | ≤ 100
5 | C[C@H]1CC[C@@H](Oc2ccc3cc(C(=O)N4C5CCC4CC(C(=O)O)C5)ccc3c2Cl)CC1 (stereo partly drawn) [Example 203, 8-(5-chloro-6-((cis-4-methylcyclohexyl)oxy)-2-naphthoyl)-8-azabicyclo[3.2.1]octane-3-carboxylic acid] | ≤ 250
6 | CC(c1ccc2c(C(F)(F)F)c(O[C@H]3CC[C@@H](C(C)(F)F)CC3)ccc2c1)N1C2CCCC1CC(C(=O)O)C2 (stereo partly drawn) [Example 217, 9-(1-(6-((cis-4-(1,1-difluoroethyl)cyclohexyl)oxy)-5-(trifluoromethyl)naphthalen-2-yl)ethyl)-9-azabicyclo[3.3.1]nonane-3-carboxylic acid] | ≤ 100
7 | CCC(c1ccc2c(C(F)(F)F)c(O[C@H]3CC[C@@H](C)CC3)ccc2c1)N1C2CCCC1CC(C(=O)O)C2 (relative stereo) [Example 128, 9-(1-(6-((cis-4-Methylcyclohexyl)oxy)-5-(trifluoromethyl)naphthalen-2-yl)propyl)-9-azabicyclo[3.3.1]nonane-3-carboxylic acid] | ≤ 100
8 | CCC(c1ccc2c(C(F)F)c(O[C@H]3CC[C@@H](C)CC3)ccc2c1)N1C2CCCC1CC(C(=O)O)C2 (relative stereo) [Example 135, 9-(1-(5-(difluoromethyl)-6-((cis-4-methylcyclohexyl)oxy)naphthalen-2-yl)propyl)-9-azabicyclo[3.3.1]nonane-3-carboxylic acid] | ≤ 100
9 | C[C@H]1CC[C@@H](Oc2ccc3cc(CN4C5CCC4CC(C(=O)O)C5)ccc3c2C(F)(F)F)CC1 (stereo partly drawn) [Example 96, 8-((6-((cis-4-Methylcyclohexyl)oxy)-5-(trifluoromethyl)naphthalen-2-yl)methyl)-8-azabicyclo[3.2.1]octane-3-carboxylic acid] | ≤ 500
10 | CC[C@@H](c1ccc2c(C(F)(F)F)c(O[C@H]3CC[C@@H](C(F)(F)F)CC3)ccc2c1)N1C2CCC1CC(C(=O)O)C2 (single isomer, unassigned) [Example 288] | ≤ 250
11 | N#Cc1c(O[C@H]2CC[C@@H](C(F)(F)F)CC2)ccc2cc(CN3C4CCCC3CC(C(=O)O)C4)ccc12 (stereo partly drawn) [Example 229, 9-((5-cyano-6-((cis-4-(trifluoromethyl)cyclohexyl)oxy)naphthalen-2-yl)methyl)-9-azabicyclo[3.3.1]nonane-3-carboxylic acid] | ≤ 100
12 | CC[C@H]1CC[C@@H](Oc2ccc3cc([C@@H](C)N4C5CCCC4CC(C(=O)O)C5)ccc3c2Cl)CC1 (single isomer, unassigned) [Example 238] | ≤ 100
13 | CCC(c1ccc2c(C(F)(F)F)c(O[C@H]3CC[C@@H](C)CC3)ccc2c1)N1C2CCC1CC(C(=O)O)C2 (relative stereo) [Example 127, 8-(1-(6-((cis-4-Methylcyclohexyl)oxy)-5-(trifluoromethyl)naphthalen-2-yl)propyl)-8-azabicyclo[3.2.1]octane-3-carboxylic acid] | ≤ 100
14 | CC[C@H]1CC[C@@H](Oc2ccc3cc(CN4C5CCCC4CC(C(=O)O)C5)ccc3c2C#N)CC1 (stereo partly drawn) [Example 199, 9-((5-cyano-6-((cis-4-ethylcyclohexyl)oxy)naphthalen-2-yl)methyl)-9-azabicyclo[3.3.1]nonane-3-carboxylic acid] | ≤ 100
15 | O=C(O)C1CC2CN(Cc3ccc4c(C(F)(F)F)c(OC5CCC(C(F)(F)F)CC5)ccc4c3)CC2C1 (centres unmarked) [Example 154, 3-(5-trifluoromethyl-6-(4-trifluoromethyl-cyclohexyloxy)-naphthalen-2-ylmethyl)-3-azabicyclo[3.3.0]octane-7-carboxylic acid] | ≤ 250
16 | CCC(c1ccc2c(C(F)(F)F)c(O[C@H]3CC[C@@H](CC)CC3)ccc2c1)N1C2CCCC1CC(C(=O)O)C2 (relative stereo) [Example 179, 9-(1-(6-((cis-4-ethylcyclohexyl)oxy)-5-(trifluoromethyl)naphthalen-2-yl)propyl)-9-azabicyclo[3.3.1]nonane-3-carboxylic acid] | ≤ 100
17 | C[C@H](c1ccc2c(Cl)c(O[C@H]3CC[C@@H](C(F)(F)F)CC3)ccc2c1)N1C2CCC1CC(C(=O)O)C2 (single isomer, unassigned) [Example 242] | ≤ 100
18 | CC(c1ccc2c(C(F)(F)F)c(O[C@H]3CC[C@@H](C)CC3)ccc2c1)N1C2CCC1CC(C(=O)O)C2 (single isomer, unassigned; enantiomer 1) [Example 130, 8-(1-(6-((cis-4-Methylcyclohexyl)oxy)-5-(trifluoromethyl)naphthalen-2-yl)ethyl)-8-azabicyclo[3.2.1]octane-3-carboxylic acid, enantiomer 1] | ≤ 250
19 | C[C@H]1CC[C@@H](Oc2ccc3cc(CN4C5CCCC4CC(C(=O)O)C5)ccc3c2Cl)CC1 (relative stereo) [Example 183, 9-((5-Chloro-6-((cis-4-methylcyclohexyl)oxy)naphthalen-2-yl)methyl)-9-azabicyclo[3.3.1]nonane-3-carboxylic acid] | ≤ 250
20 | COC(=O)C1CC2CCC(C1)N2C(=O)c1ccc2c(C(F)(F)F)c(N[C@H]3CC[C@@H](C(F)(F)F)CC3)ccc2c1 (stereo partly drawn) [Example 231, methyl 8-(5-(trifluoromethyl)-6-((cis-4-(trifluoromethyl)cyclohexyl)amino)-2-naphthoyl)-8-azabicyclo[3.2.1]octane-3-carboxylate] | ≤ 250
21 | C[C@H]1CC[C@@H](Oc2ccc3cc(CN4C5CCCC4CC(C(=O)O)C5)ccc3c2C(F)(F)F)CC1 (stereo partly drawn) [Example 97, 9-((6-((cis-4-Methylcyclohexyl)oxy)-5-(trifluoromethyl)naphthalen-2-yl)methyl)-9-azabicyclo[3.3.1]nonane-3-carboxylic acid] | ≤ 100
22 | C[C@H]1CC[C@@H](Oc2ccc3cc(C(=O)N4C5CCC4CC(C(=O)O)C5)ccc3c2C#N)CC1 (stereo partly drawn) [Example 219, 8-(5-cyano-6-((cis-4-methylcyclohexyl)oxy)-2-naphthoyl)-8-azabicyclo[3.2.1]octane-3-carboxylic acid] | ≤ 100
23 | COC(=O)C1CC2CCCC(C1)N2C(=O)c1ccc2c(C(F)(F)F)c(N[C@H]3CC[C@@H](C(F)(F)F)CC3)ccc2c1 (stereo partly drawn) [Example 244, methyl 9-(5-(trifluoromethyl)-6-((cis-4-(trifluoromethyl)cyclohexyl)amino)-2-naphthoyl)-9-azabicyclo[3.3.1]nonane-3-carboxylate] | ≤ 100
